Converted amounts (≈) assume the structure as drawn. Read-outs that look alike come from different tables or passages of the source.
Experiments:
HIV-1 WT strain (IIIB) = assay: Anti-HIV-1 activity in MT-4 cells, MTT method, WT strain IIIB; format: cell-based
MT-4 cells = assay: Cytotoxicity in mock-infected MT-4 cells, MTT method; format: cell-based; settings: MTT method
HIV-1 Y188L = assay: microbe, parasite or virus in culture; format: cell-based; settings: for RF Y188L: resistance fold, EC50 (mutant strain)/EC50 (WT strain)
HIV-1 Y181C = assay: microbe, parasite or virus in culture; format: cell-based; settings: for RF Y181C: resistance fold, EC50 (mutant strain)/EC50 (WT strain)
HIV-1 F227L + V106A = assay: microbe, parasite or virus in culture; format: cell-based; settings: for RF F227L + V106A: resistance fold, EC50 (mutant strain)/EC50 (WT strain)
HIV-1 K103N = assay: microbe, parasite or virus in culture; format: cell-based; settings: for RF K103N: resistance fold, EC50 (mutant strain)/EC50 (WT strain)
[1] = test system: HIV-1 K103N + Y181C (RES056); assay: microbe, parasite or virus in culture; format: cell-based; settings: for RF RES056: resistance fold, EC50 (mutant strain)/EC50 (WT strain)
HIV-1 E138K = assay: microbe, parasite or virus in culture; format: cell-based; settings: for RF E138K: resistance fold, EC50 (mutant strain)/EC50 (WT strain)
CYP1A2 = molecular target: T1, CYP1A2 (Homo sapiens, UniProt P05177); assay: Cytochrome P450 inhibition assay, CYP1A2
T1 sequence (P05177 1-516): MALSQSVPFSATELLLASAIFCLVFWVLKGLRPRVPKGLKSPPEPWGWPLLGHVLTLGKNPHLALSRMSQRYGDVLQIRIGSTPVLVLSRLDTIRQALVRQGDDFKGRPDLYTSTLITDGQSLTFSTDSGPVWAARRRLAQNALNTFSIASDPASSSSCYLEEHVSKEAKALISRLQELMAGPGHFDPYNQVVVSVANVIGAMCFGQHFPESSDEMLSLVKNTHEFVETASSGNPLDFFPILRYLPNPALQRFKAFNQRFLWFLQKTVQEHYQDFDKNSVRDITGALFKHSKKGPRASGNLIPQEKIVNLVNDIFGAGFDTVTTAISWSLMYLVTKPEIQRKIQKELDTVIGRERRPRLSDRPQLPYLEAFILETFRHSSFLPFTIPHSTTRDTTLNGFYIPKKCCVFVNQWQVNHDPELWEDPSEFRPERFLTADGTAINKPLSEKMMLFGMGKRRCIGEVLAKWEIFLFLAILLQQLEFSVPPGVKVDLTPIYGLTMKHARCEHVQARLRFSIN

CYP2C9 = CYP2C9 (Homo sapiens, UniProt P11712); assay: Cytochrome P450 inhibition assay, CYP2C9; format: in vitro ADME
hERG channel = hERG channel (Homo sapiens, UniProt Q12809); assay: hERG channel inhibition assay, manual patch-clamp in HEK293 cells; format: cell-based; settings: HEK293 cells stably transfected with hERG cDNA
[2] = In vivo pharmacokinetics in SD rats; parameters: species or system Sprague–Dawley (SD) rats
CYP3A4 = CYP3A4 (Homo sapiens, UniProt P08684); assay: Cytochrome P450 inhibition assay, CYP3A4
HIV-1 L100I = assay: microbe, parasite or virus in culture; format: cell-based
HIV-1 RT = HIV-1 RT (Human immunodeficiency virus type 1 group M subtype B, UniProt P03366); assay: HIV-1 RT inhibition assay; format: biochemical
CYP2C19 = CYP2C19 (Homo sapiens, UniProt P33261); assay: Cytochrome P450 inhibition assay, CYP2C19; format: in vitro ADME
CYP2D6 = CYP2D6 (Homo sapiens, UniProt P10635); assay: biochemical
[3] = Single-dose acute toxicity in mice; format: in vivo; settings: Kunming mice, single intragastric dose 2000 mg/kg, 7 days observation
[4] = test system: main CYP enzymes (CYP1A2, CYP2C9, CYP2C19, CYP2D6, CYP3A4; range over isoforms); assay: Cytochrome P450 inhibition assay, summary over isoforms; format: in vitro ADME; settings: human, human liver microsomes
[5] = Cytotoxicity in mock-infected MT-4 cells, MTT method; format: cell-based; settings: human
[6] = read-out: EC50 IIIB, MT-4 cells, MTT method, HIV-1 IIIB (WT)
[7] = selectivity index, ratio of CC50/EC50
[8] = Sprague-Dawley, rat, plasma, iv, 2 mg/kg
[9] = Sprague-Dawley, rat, plasma, po, 20 mg/kg

CYP3A4, sequence (P08684 whole entry): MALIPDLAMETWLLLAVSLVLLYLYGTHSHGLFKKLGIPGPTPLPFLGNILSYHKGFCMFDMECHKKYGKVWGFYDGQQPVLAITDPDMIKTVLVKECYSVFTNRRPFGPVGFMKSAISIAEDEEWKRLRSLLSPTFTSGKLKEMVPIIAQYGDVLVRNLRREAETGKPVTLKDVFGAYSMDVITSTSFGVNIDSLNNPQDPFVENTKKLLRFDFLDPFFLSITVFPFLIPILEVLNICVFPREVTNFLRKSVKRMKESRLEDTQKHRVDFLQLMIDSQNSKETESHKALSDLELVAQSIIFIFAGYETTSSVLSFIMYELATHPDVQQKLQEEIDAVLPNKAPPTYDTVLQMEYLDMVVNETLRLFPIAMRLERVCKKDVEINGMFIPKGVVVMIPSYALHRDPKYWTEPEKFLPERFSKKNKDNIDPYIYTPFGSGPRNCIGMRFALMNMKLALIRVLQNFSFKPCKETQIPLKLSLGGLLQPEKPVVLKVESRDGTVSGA
CYP2C19, sequence (P33261 whole entry): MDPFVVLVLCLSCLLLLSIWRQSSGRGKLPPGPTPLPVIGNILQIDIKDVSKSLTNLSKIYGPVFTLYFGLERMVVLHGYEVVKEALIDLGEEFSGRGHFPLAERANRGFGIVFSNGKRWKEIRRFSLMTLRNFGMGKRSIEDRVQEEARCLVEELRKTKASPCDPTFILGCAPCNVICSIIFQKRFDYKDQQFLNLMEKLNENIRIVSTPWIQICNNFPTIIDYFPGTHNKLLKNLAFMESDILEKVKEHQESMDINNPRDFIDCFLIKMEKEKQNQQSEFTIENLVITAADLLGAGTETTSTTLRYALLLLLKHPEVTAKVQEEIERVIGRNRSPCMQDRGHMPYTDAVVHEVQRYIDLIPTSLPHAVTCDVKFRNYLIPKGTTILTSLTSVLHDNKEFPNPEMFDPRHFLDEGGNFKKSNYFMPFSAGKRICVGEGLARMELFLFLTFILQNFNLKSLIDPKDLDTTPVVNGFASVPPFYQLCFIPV
CYP2D6, sequence (P10635 whole entry): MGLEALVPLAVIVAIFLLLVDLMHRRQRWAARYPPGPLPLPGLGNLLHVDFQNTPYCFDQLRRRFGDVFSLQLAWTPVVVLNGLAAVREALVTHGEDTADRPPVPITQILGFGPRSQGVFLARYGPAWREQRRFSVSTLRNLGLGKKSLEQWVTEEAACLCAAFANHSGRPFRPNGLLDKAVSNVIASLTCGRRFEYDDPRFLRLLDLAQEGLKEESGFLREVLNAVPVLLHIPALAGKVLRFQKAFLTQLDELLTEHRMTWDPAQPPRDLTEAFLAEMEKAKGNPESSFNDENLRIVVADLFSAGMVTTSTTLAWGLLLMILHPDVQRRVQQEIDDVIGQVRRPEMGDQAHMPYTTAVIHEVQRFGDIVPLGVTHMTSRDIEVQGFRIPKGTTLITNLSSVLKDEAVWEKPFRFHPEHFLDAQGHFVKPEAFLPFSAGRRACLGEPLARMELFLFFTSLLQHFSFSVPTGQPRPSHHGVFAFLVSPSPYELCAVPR
hERG channel, sequence (Q12809 whole entry): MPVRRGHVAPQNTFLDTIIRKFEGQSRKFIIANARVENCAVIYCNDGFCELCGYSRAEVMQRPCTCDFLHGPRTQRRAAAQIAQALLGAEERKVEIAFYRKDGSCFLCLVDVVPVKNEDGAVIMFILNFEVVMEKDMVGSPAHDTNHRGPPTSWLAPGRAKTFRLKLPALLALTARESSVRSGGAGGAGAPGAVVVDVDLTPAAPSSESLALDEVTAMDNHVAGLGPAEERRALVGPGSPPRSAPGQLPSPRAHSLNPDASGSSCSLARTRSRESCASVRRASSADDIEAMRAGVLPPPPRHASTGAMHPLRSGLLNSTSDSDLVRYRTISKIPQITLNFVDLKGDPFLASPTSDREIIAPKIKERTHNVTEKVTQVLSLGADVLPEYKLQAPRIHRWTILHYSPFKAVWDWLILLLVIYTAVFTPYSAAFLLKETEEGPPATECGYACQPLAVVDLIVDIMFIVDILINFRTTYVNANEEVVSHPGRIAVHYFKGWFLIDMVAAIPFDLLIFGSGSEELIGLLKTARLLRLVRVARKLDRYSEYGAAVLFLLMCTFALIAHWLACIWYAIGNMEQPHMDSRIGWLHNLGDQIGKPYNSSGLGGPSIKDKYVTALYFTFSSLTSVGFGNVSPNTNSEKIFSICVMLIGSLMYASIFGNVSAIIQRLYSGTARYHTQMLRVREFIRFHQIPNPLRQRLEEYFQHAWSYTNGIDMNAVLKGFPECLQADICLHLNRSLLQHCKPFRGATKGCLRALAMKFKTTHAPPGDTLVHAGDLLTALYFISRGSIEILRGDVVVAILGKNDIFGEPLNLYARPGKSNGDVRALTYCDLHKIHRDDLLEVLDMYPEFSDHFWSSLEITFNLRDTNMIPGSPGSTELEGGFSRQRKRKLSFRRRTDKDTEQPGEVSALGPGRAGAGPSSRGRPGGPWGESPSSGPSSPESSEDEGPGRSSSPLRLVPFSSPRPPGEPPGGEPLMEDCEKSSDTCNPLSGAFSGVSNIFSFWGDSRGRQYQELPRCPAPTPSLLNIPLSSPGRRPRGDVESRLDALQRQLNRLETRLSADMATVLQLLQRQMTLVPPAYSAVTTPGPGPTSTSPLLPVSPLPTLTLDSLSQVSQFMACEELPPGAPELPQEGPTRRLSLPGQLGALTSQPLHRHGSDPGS
CYP2C9, sequence (P11712 whole entry): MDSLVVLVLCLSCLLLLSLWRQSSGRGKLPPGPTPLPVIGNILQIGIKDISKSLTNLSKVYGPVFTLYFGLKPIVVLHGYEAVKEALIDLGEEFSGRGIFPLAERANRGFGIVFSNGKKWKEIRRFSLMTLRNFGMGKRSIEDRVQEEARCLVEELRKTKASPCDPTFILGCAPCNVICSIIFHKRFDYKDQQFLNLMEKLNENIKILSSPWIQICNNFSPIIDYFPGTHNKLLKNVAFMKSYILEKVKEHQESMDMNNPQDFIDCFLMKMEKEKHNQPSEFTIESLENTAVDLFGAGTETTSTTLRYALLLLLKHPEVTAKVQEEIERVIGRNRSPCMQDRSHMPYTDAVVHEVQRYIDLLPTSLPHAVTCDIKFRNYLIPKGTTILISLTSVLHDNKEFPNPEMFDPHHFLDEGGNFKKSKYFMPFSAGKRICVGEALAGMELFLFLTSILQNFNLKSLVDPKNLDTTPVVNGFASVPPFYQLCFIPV

4-((1-(4-(4-Cyano-2,6-dimethylphenoxy)-7,8-dihydro-6H-thiopyrano[3,2-d]pyrimidin-2-yl)piperidin-4-yl)amino)benzenesulfonamide [19b]
EC50 IIIB (HIV-1 WT strain (IIIB); MT-4 cells, MTT method, HIV-1 IIIB (WT)): lost potency
EC50 (HIV-1 WT strain (IIIB); [6]): > 16100 nM
CC50 (MT-4 cells): 3070 ± 300 nM

Cc1ccnc2c1NC(=O)c1cccnc1N2C1CC1 [NVP, reference compound]
EC50 (HIV-1 Y188L; read-out: EC50 Y188L, MT-4 cells, MTT method): 4420 ± 2470 nM
RF Y188L (HIV-1 Y188L): 37.4
EC50 (HIV-1 WT strain (IIIB); [6]): 118 ± 66.9 nM
EC50 (HIV-1 Y181C; read-out: EC50 Y181C, MT-4 cells, MTT method): 3780 ± 2580 nM
RF Y181C (HIV-1 Y181C): 32.0
EC50 (HIV-1 F227L + V106A; read-out: EC50 F227L + V106A, MT-4 cells, MTT method): 3540 ± 2750 nM
RF F227L + V106A (HIV-1 F227L + V106A): 30.0
EC50 (HIV-1 K103N; read-out: EC50 K103N, MT-4 cells, MTT method): 3550 ± 2410 nM
RF K103N (HIV-1 K103N): 30.0
EC50 ([1]; read-out: EC50 RES056, MT-4 cells, MTT method, RES056 (K103N + Y181C)): 2220 ± 736 nM
RF RES056 [1]: 18.8
EC50 (HIV-1 E138K; read-out: EC50 E138K, MT-4 cells, MTT method): 158 ± 112 nM
RF E138K (HIV-1 E138K): 1.3
CC50 (MT-4 cells): > 15000 nM

Cc1cc(/C=C/C#N)cc(C)c1Oc1nc(NC2CCN(Cc3ccc(S(N)(=O)=O)cc3)CC2)nc2c1SCCC2 [compound 23h, (E)-4-((4-((4-(4-(2-Cyanovinyl)-2,6-dimethylphenoxy)-7,8-dihydro-6H-thiopyrano[3,2-d]pyrimidin-2-yl)amino)piperidin-1-yl)methyl)benzenesulfonamide]
EC50 (HIV-1 Y188L; Human immunodeficiency virus 1, MT4, read-out: EC50 Y188L): 16.5 ± 5.18 nM
RF Y188L (HIV-1 Y188L): 4.8
SI Y188L (HIV-1 Y188L; [7]): 201
IC50 (CYP1A2): > 50000 nM
EC50 (HIV-1 WT strain (IIIB); Human immunodeficiency virus 1, IIIB, MT4, read-out: EC50 IIIB): 3.43 ± 2 nM
IC50 (CYP2C9): 3410 nM
IC50 (hERG channel): 79 nM
V (iv) ([2]; SD rats, iv 2 mg/kg, mean ± SD, n = 3, 2 mg/kg): 49.7 L/kg
AUC(0-inf) [2, 8]: 1210 ± 78.9 ng·h/mL
AUC(0-t) [2, 8]: 1150 ± 69.7 ng·h/mL
MRT inf [2, 8]: 2.03 ± 0.41 h
MRT last [2, 8]: 1.56 ± 0.17 h
clearance [2, 8]: 277 mL/min/kg
half-life [2, 8]: 2.09 ± 0.39 h
bioavailability ([2]; Sprague-Dawley, rat, plasma, oral, 20 mg/kg): 15.3%
AUC(0-inf) [2, 9]: 1860 ± 1680 ng·h/mL
AUC(0-t) [2, 9]: 1680 ± 1480 ng·h/mL
Cmax [2, 9]: 333 ± 276 ng/mL
MRT inf [2, 9]: 5.02 ± 0.48 h
MRT last [2, 9]: 4.1 ± 0.12 h
Tmax [2, 9]: 1.5 ± 0.87 h
half-life [2, 9]: 3 ± 0.74 h
EC50 (HIV-1 Y181C; Human immunodeficiency virus 1, MT4, read-out: EC50 Y181C): 8.46 ± 1.17 nM
Fold improvement in potency compared to ETR, Y181C (HIV-1 Y181C; ratio of EC50 values vs ETR): 1.7 fold
RF Y181C (HIV-1 Y181C): 2.5
SI Y181C (HIV-1 Y181C; [7]): 391
IC50 (CYP3A4): 13500 nM
EC50 (HIV-1 L100I; Human immunodeficiency virus 1, MT4, read-out: EC50 L100I): 4.46 ± 0.36 nM
Times greater activity than ETR, L100I (HIV-1 L100I; ratio of EC50 values vs ETR): 2.0 times
RF L100I (HIV-1 L100I; resistance fold, EC50 (mutant strain)/EC50 (WT strain)): 1.3
SI L100I (HIV-1 L100I; [7]): 742
IC50 (HIV-1 RT): 529 ± 142 nM
solubility (physchem; pH 2, aqueous buffer): 161 µg/mL (≈ 273 µM)
solubility (physchem; pH 7, aqueous buffer): 11.7 µg/mL (≈ 19.8 µM)
solubility (physchem; pH 7.4, aqueous buffer): 3.04 µg/mL (≈ 5.15 µM)
EC50 (HIV-1 F227L + V106A; Human immunodeficiency virus 1, MT4, read-out: EC50 F227L + V106A): 5.35 ± 0.69 nM
Fold better than EFV, F227L + V106A (HIV-1 F227L + V106A; ratio of EC50 values vs EFV): 14.5 fold
Fold better than RPV, F227L + V106A (HIV-1 F227L + V106A; ratio of EC50 values vs RPV): 15.3 fold
RF F227L + V106A (HIV-1 F227L + V106A): 1.6
SI F227L + V106A (HIV-1 F227L + V106A; [7]): 619
IC50 (CYP2C19): 15600 nM
IC50 (CYP2D6): 36800 nM
EC50 (HIV-1 K103N; Human immunodeficiency virus 1, MT4, read-out: EC50 K103N): 6.13 ± 0.12 nM
RF K103N (HIV-1 K103N): 1.8
SI K103N (HIV-1 K103N; [7]): 540
EC50 ([1]; Human immunodeficiency virus 1, MT4, read-out: EC50 RES056): 15.2 ± 9.44 nM
Fold greater potency than EFV, RES056 ([1]; ratio of EC50 values vs EFV): 7.5 fold
Fold greater potency than ETR, RES056 ([1]; ratio of EC50 values vs ETR): 2.3 fold
RF RES056 [1]: 4.4
SI RES056 [1, 7]: 218
EC50 (HIV-1 E138K; Human immunodeficiency virus 1, MT4, read-out: EC50 E138K): 21.4 ± 4.19 nM
RF E138K (HIV-1 E138K): 6.2
SI E138K (HIV-1 E138K; [7]): 155
Death or signs of intoxication [3]: no death or signs of intoxication
IC50 at 10 min [4]: 3410 to 50000 nM
CC50 at 5 days [5]: 3310 ± 1700 nM
